{"source": "paper PMC9425435", "about": "“Antiviral Profiling of C-18- or C-19-Functionalized Semisynthetic Abietane Diterpenoids” (Journal of Natural Products, 2022)", "key": {"ZIKV (Zika virus)": {"test_system": "ZIKV (Zika virus)", "experiment": "Plaque reduction assay (PFU), ZIKV in Vero E6", "type": "cell-based"}, "ZIKV/Col [1]": {"test_system": "ZIKV/Col", "experiment": "Quantification of infectious viral particles by plaque assay, ZIKV/Col post-treatment", "type": "cell-based, Zika virus", "conditions": "for percentage of infection (infectious viral particles, plaque assay): ZIKV/Col, Vero cells, post-treated, vs untreated control 100%"}, "[2]": {"test_system": "endemic chikungunya virus of Colombian origin", "experiment": "Post-infection stage evaluation assay (plaque), CHIKV"}, "[3]": {"test_system": "CHIKV (Chikungunya virus)", "experiment": "End-point titration technique (EPTT), viral titer reduction factor, CHIKV in Vero E6", "type": "cell-based", "conditions": "Vero E6, 10TCID50, EPTT"}, "[4]": {"test_system": "Colombian Zika virus strains", "experiment": "Anti-Zika EC50 summarised over Colombian strains (abstract)", "type": "cell-based", "conditions": "read-out: EC50 against Colombian Zika virus strains"}, "[5]": {"test_system": "DENV-2 (Dengue virus type 2)", "experiment": "Plaque reduction assay (PFU), DENV-2 in BHK21", "type": "cell-based", "conditions": "DENV-2, BHK21, PFU/well 150 ± 25"}, "[6]": {"test_system": "herpes virus type 2 (HHV-2)", "conditions": "cited from earlier work"}, "Vero-E6 cells": {"test_system": "Vero-E6 cells", "experiment": "Cytotoxicity CC100 in Vero-E6 cells (72 h)", "conditions": "Vero-E6 cells, 72h"}, "DENV-2": {"test_system": "DENV-2", "conditions": "postinfection stages; cited from earlier work"}, "ZIKV strain (COL345Si)": {"test_system": "ZIKV strain (COL345Si)", "experiment": "Post-infection stage evaluation assay (plaque), ZIKV COL345Si"}, "BHK-21 cells": {"test_system": "BHK-21 cells", "experiment": "Cytotoxicity CC100 in BHK-21 cells (6 days)"}, "[7]": {"experiment": "MTT cytotoxicity assay (CC50)", "conditions": "chlorocebus sabaeus"}, "ZIKV/Col [8]": {"test_system": "ZIKV/Col", "experiment": "Intracellular quantification of viral protein by cell-ELISA, ZIKV/Col", "type": "cell-based, Zika virus", "conditions": "all concentrations evaluated (3.1-25.0 μg/mL)"}, "Zika_459148 virus strain": {"test_system": "Zika_459148 virus strain", "experiment": "Post-infection stage evaluation assay (plaque), Zika_459148"}, "ZIKV/Col [9]": {"test_system": "ZIKV/Col", "experiment": "Quantification of intracellular viral genome by qRT-PCR, ZIKV/Col", "type": "cell-based, Zika virus"}}, "data": [{"smiles": "CC(C)c1cc2c(cc1O)[C@@]1(C)CCC[C@@](C)(CN3C(=O)c4ccccc4C3=O)[C@@H]1CC2", "note": "[Compound 6, 18-(phthalimid-2-yl)ferruginol]", "values": [{"measurement": "Nontoxic concentration that showed a higher viral reduction factor, in μM", "setting": "ZIKV (Zika virus); ZIKV PFU assay, conversion of 3.1 μg/mL", "value": "ca. 7.2 μM"}, {"measurement": "% inhibition (PFU)", "setting": "ZIKV (Zika virus); ZIKV, Vero E6, PFU/well 150 ± 25", "value": "52 ± 13", "unit": "%"}, {"measurement": "percentage of infection (infectious viral particles, plaque assay)", "setting": "ZIKV/Col [1]; 3.1 μg/mL", "value": 62.7, "unit": "%"}, {"measurement": "percentage of infection (infectious viral particles, plaque assay)", "setting": "ZIKV/Col [1]; 6.2 μg/mL", "value": 31.3, "unit": "%"}, {"measurement": "percentage of infection (infectious viral particles, plaque assay)", "setting": "ZIKV/Col [1]; 12.5 μg/mL", "value": 20.9, "unit": "%"}, {"measurement": "percentage of infection (infectious viral particles, plaque assay)", "setting": "ZIKV/Col [1]; 25.0 μg/mL", "value": 7.0, "unit": "%"}, {"measurement": "EC50", "setting": "ZIKV/Col [1]; Zika virus, read-out: EC50 ZIKV/Col", "value": 9.9, "unit": "µM"}, {"measurement": "SI (CC50/EC50)", "setting": "[2]; CHIKV", "value": 19.6}, {"measurement": "EC50", "setting": "[2]; Chikungunya virus, read-out: EC50 chikungunya virus", "value": 9.8, "unit": "µM"}, {"measurement": "Rf (reduction factor of the viral titer)", "setting": "[3]", "value": "10^2"}, {"measurement": "EC50", "setting": "[4]", "value": "5 to 10", "unit": "µM"}, {"measurement": "% inhibition (PFU)", "setting": "[5]", "value": "91 ± 7", "unit": "%"}, {"measurement": "EC50", "setting": "[6]", "value": 19.2, "unit": "µM"}, {"measurement": "CC100 (100% cytotoxic concentration)", "setting": "Vero-E6 cells", "value": ">50", "unit": "µg/mL"}, {"measurement": "EC50", "setting": "DENV-2", "value": 1.4, "unit": "µM"}, {"measurement": "SI (CC50/EC50)", "setting": "ZIKV strain (COL345Si); ZIKV COL345Si, 6 days", "value": 15}, {"measurement": "EC50", "setting": "ZIKV strain (COL345Si); Zika virus, 144 h, read-out: EC50 ZIKV strain COL345Si", "value": "5.3 ± 2.9", "unit": "µM"}, {"measurement": "CC100 (100% cytotoxic concentration)", "setting": "BHK-21 cells", "value": ">50", "unit": "µg/mL"}, {"measurement": "CC50 at 72 h", "setting": "[7]", "value": 192, "unit": "µM"}, {"measurement": "CC50 at 144 h", "setting": "[7]", "value": 80.8, "unit": "µM"}, {"measurement": "viral protein production, percentages of infection", "setting": "ZIKV/Col [8]", "value": "below 50%"}, {"measurement": "EC50", "setting": "Zika_459148 virus strain; Zika virus, Vero C1008, 72 h, read-out: EC50 anti-Zika_459148 virus", "value": "6.3 ± 2.7", "unit": "µM"}, {"measurement": "SI (CC50/EC50)", "setting": "Zika_459148 virus strain; Zika_459148, 72 h", "value": 30}, {"measurement": "number of genome copies/mL, percentage of untreated control", "setting": "ZIKV/Col [9]; 3.1 μg/mL", "value": 125.9, "unit": "%"}, {"measurement": "replication of viral genome", "setting": "ZIKV/Col [9]; cultures treated with 6.2, 12.5, and 25.0 μg/mL", "value": "significantly inhibited"}]}]}
